One assay has as its target human ATX (Homo sapiens (Human), UniProt Q13822). Briefly: Human ATX enzyme inhibition assay (fluorescence quenching, MR121 substrate). The format is biochemical. The following applies: human His-tagged ATX 30 nM, MR121 substrate 1 μM. How it is done:
Production of Human Full Length ATX, with and without His Tag
Autotaxin (ATX-ENPP2) cloning: cDNA was prepared from commercial human hematopoietic cells total RNA and used as template in overlapping PCR to generate a full length human ENPP2 ORF with or without a 3′-6× His tag. These full length inserts were cloned into the pcDNA3.1V5-His TOPO (Invitrogen) vector. The DNA sequences of several single clones were verified. The DNA from a correct full length clone was used to transfect Hek293 cells for verification of protein expression. The sequence of the encoded ENPP2 conforms to Swissprot entry Q13822, with or without the additional C-terminal 6× His tag.
ATX Fermentation: Recombinant protein was produced by large-scale transient transfection in 20 L controlled stirred tank bioreactors (Sartorius). During cell growth and transfection, temperature, stirrer speed, pH and dissolved oxygen concentration were maintained at 37° C., 120 rpm, 7.1 and 30% DO, respectively. FreeStyle 293-F cells (Invitrogen) were cultivated in suspension in FreeStyle 293 medium (Invitrogen) and transfected at ca. 1-1.5×10E6 cells/mL with above plasmid DNAs using X-tremeGENE Ro-1539 (commercial product, Roche Diagnostics) as complexing agent. Cells were fed a concentrated nutrient solution (J Immunol Methods 194 (1996), 19, 1-199 (page 193)) and induced by sodium butyrate (2 mM) at 72 h post-transfection and harvested at 96 h post-transfection. Expression was analyzed by Western Blot, enzymatic assay and/or analytical IMAC chromatography. After cooling the cell suspension to 4° C. in a flow-through heat exchanger, cell separation and sterile filtration of supernatant was performed by filtration through Zeta Plus 60M02 E16 (Cuno) and Sartopore 2 XLG (Sartorius) filter units. The supernatant was stored at 4° C. prior to purification.
ATX Purification: 20 liter of culture supernatant were conditioned for ultrafiltration by adding Brij 35 to a final concentration of 0.02% and by adjusting the pH to 7.0 using 1 M HCl. Then the supernatant was first microfiltred through a 0.2 µm Ultran-Pilot Open Channel PES filter (Whatman) and afterwards concentrated to 1 liter through an Ultran-Pilot Screen Channel PES filter with 30 kDa MWCO (Whatman). Prior to IMAC chromatography, NiSO4 was added to a final concentration of 1 mM. […] The column was washed stepwise with the same buffer containing 20 mM, 40 mM and 50 mM imidazole, respectively. The protein was subsequently eluted using a linear gradient to 0.5 M imidazole in 15 column volumes. ATX containing fractions were pooled and concentrated using an Amicon cell equipped with a 30 kDa PES filter membrane. […] Final yield of protein after purification was 5-10 mg ATX per liter of culture supernatant. The protein was stored at −80° C.
Human ATX Enzyme Inhibition Assay
Test compounds (10 mM stock in DMSO, 8 μL) were obtained in 384 well sample plates (Corning Costar #3655) and diluted with 8 μL DMSO. […] Then, 15 μL of 41.7 nM ATX solution was added (30 nM final concentration), mixed five times and then incubated for 15 minutes at 30° C. 10 μL of MR121 substrate solution was added (1 μM final concentration), mixed 30 times and then incubated for 15 minutes at 30° C.

For assay [1], the target named is Human carbonic anhydrase II (hCA-II) (Homo sapiens (Human), UniProt P00918). Briefly: Human carbonic anhydrase-II inhibition assay (absorbance, 4-NPA substrate). Type of assay: biochemical. Particulars: hCA II 8 nM, 4-NPA 2.5 mM, absorbance 340 nm; read-out: CA-II IC50. How it is done:
Human Carbonic Anhydrase-II Inhibition Assay
Then 30 μL of 16 nM hCA II solution was added (8 nM final concentration), mixed five times. 30 μL of 4-NPA substrate solution was added (2.5 mM final concentration), mixed five times.

Each structure is given as a SMILES string.

As usually defined, the IC50 is the concentration that inhibits the measured activity by half.

`CO[C@@]12CN(C(=O)OCc3ccc(OC(F)(F)F)cc3)C[C@H]1CN(C(=O)c1ccc(S(N)(=O)=O)cc1)C2` (single isomer, unassigned) [Example 4.01, (−)-trans-5-(4-sulfamoyl-benzoyl)-3a-methoxy-hexahydro-pyrrolo[3,4-c]pyrrole-2-carboxylic acid 4-trifluoromethoxy-benzyl ester]: the half-inhibitory concentration (IC50) on human ATX amounted to 13 nM; in assay [1] it was 18 nM.

Take `C[C@]12CN(C(=O)OCc3ccc(OC(F)(F)F)cc3)C[C@@H]1CN(C(=O)c1ccc(S(N)(=O)=O)cc1)C2` [Example 5.00, (−)-(3aS,6aS)-3a-methyl-5-(4-sulfamoylbenzoyl)-hexahydro-pyrrolo[3,4-c]pyrrole-2-carboxylic acid 4-trifluoromethoxy-benzyl ester]: the values for the IC50 (on human ATX; in assay [1]) were 7 nM and 38 nM, respectively.

Take `NS(=O)(=O)c1ccc(C(=O)N2C[C@H]3CN(C(=O)CCc4ccc(OC(F)(F)F)cc4)C[C@]3(F)C2)c(F)c1` (relative stereo) [Example 3.03, trans-4-[3a-fluoro-2-[3-[4-(trifluoromethoxy)phenyl]propanoyl]-3,4,6,6a-tetrahydro-1H-pyrrolo[3,4-c]pyrrole-5-carbonyl]-3-fluorobenzenesulfonamide]: the IC50 against human ATX turned out to be 4 nM; in assay [1] it was 6 nM.

`NS(=O)(=O)c1ccc(C(=O)N2C[C@@H]3CN(C(=O)OCc4ccc(OC(F)(F)F)cc4)C[C@@]3(F)C2)cc1` (single isomer, unassigned) [Example 5.02, (+)-trans-5-(4-sulfamoyl-benzoyl)-3a-fluoro-hexahydro-pyrrolo[3,4-c]pyrrole-2-carboxylic acid 4-trifluoromethoxy-benzyl ester]: the values for the IC50 (at human ATX; in assay [1]) were 4 nM and 15 nM, respectively.

Turning to `NS(=O)(=O)c1ccc(C(=O)N2C[C@H]3CN(C(=O)/C=C/c4ccc(OC(F)(F)F)cc4)C[C@]3(F)C2)c(F)c1` (relative stereo) [Example 3.00, trans-4-[3a-Fluoro-2-[(E)-3-[4-(trifluoromethoxy)phenyl]prop-2-enoyl]-3,4,6,6a-tetrahydro-1H-pyrrolo[3,4-c]pyrrole-5-carbonyl]-3-fluorobenzenesulfonamide], the IC50 at human ATX worked out at 5 nM; in assay [1], 9 nM.

As for `C[C@]12CN(C(=O)OCc3ccc(OC(F)(F)F)cc3)C[C@@H]1CN(C(=O)c1ccc(S(N)(=O)=O)cc1)C2` (racemic) [Example 1.06, trans-3a-methyl-5-(4-sulfamoyl-benzoyl)-hexahydro-pyrrolo[3,4-c]pyrrole-2-carboxylic acid 4-trifluoromethoxy-benzyl ester], the IC50 on human ATX stood at 6 nM.

For the molecule `CO[C@@]12CN(C(=O)c3cc(OCC4CCOCC4)nc(C4CC4)c3)C[C@H]1CN(C(=O)c1ccc(S(N)(=O)=O)cn1)C2` (relative stereo) [Example 1.09, trans-6-[5-[2-cyclopropyl-6-(oxan-4-ylmethoxy)pyridine-4-carbonyl]-3a-methoxy-3,4,6,6a-tetrahydro-1H-pyrrolo[3,4-c]pyrrole-2-carbonyl]pyridine-3-sulfonamide], the IC50 (at human ATX; in assay [1]) was 10 nM each time.

For the molecule `CO[C@]12CN(C(=O)OCc3ncc(C(F)(F)F)cc3NC(=O)C(C)(C)C)C[C@@H]1CN(C(=O)c1ccc(S(N)(=O)=O)cc1F)C2` (racemic) [Example 1.00, trans-5-(2-Fluoro-4-sulfamoyl-benzoyl)-3a-methoxy-hexahydro-pyrrolo[3,4-c]pyrrole-2-carboxylic acid 3-(2,2-dimethyl-propionylamino)-5-trifluoromethyl-pyridin-2-ylmethyl ester], the half-maximal inhibitory concentration (IC50) at human ATX was determined as 8 nM; in assay [1], 5 nM.

On human ATX, `CO[C@]12CN(C(=O)OCc3ncc(C(F)(F)F)cc3NC(=O)C(C)(C)C)C[C@@H]1CN(C(=O)c1ccc(S(N)(=O)=O)cc1)C2` (racemic) [Example 1.03, trans-5-(4-sulfamoyl-benzoyl)-3a-methoxy-hexahydro-pyrrolo[3,4-c]pyrrole-2-carboxylic acid 3-(2,2-dimethyl-propionylamino)-5-trifluoromethyl-pyridin-2-ylmethyl ester] showed an IC50 of 6 nM.

For the molecule `CO[C@]12CN(C(=O)OCc3ncc(C(F)(F)F)cc3NC(=O)C(C)(C)C)C[C@@H]1CN(C(=O)c1ccc(S(N)(=O)=O)cn1)C2` (relative stereo) [Example 1.07, trans-5-(5-sulfamoylpyridine-2-carbonyl)-3a-methoxy-hexahydro-pyrrolo[3,4-c]pyrrole-2-carboxylic acid 3-(2,2-dimethyl-propionylamino)-5-trifluoromethyl-pyridin-2-ylmethyl ester], the IC50 amounted to 6 nM against human ATX and 13 nM in assay [1].

Consider `NS(=O)(=O)c1ccc(C(=O)N2C[C@H]3CN(C(=O)OCc4ccc(OC(F)(F)F)cc4)C[C@]3(F)C2)cc1` (racemic) [Example 1.04, trans-5-(4-sulfamoyl-benzoyl)-3a-fluoro-hexahydro-pyrrolo[3,4-c]pyrrole-2-carboxylic acid 4-trifluoromethoxy-benzyl ester], for which the half-inhibitory concentration (IC50) at human ATX is 3 nM.

Take `CO[C@]12CN(C(=O)CCc3ccc(OC(F)(F)F)cc3)C[C@@H]1CN(C(=O)c1ccc(S(N)(=O)=O)cn1)C2` (relative stereo) [Example 1.08, trans-6-[3a-methoxy-2-[3-[4-(trifluoromethoxy)phenyl]propanoyl]-3,4,6,6a-tetrahydro-1H-pyrrolo[3,4-c]pyrrole-5-carbonyl]pyridine-3-sulfonamide]: the IC50 turned out to be 17 nM at human ATX and 18 nM in assay [1].

`CO[C@]12CN(C(=O)CCc3ccc(OC(F)(F)F)cc3)C[C@@H]1CN(C(=O)c1ccc(S(N)(=O)=O)cc1F)C2` (relative stereo) [Example 1.01, trans-4-[3a-methoxy-2-[3-[4-(trifluoromethoxy)phenyl]propanoyl]-3,4,6,6a-tetrahydro-1H-pyrrolo[3,4-c]pyrrole-5-carbonyl]-3-fluorobenzenesulfonamide]: the half-maximal inhibitory concentration (IC50) was 10 nM at human ATX and 8 nM in assay [1].

Consider `NS(=O)(=O)c1ccc(C(=O)N2C[C@@H]3CN(C(=O)OCc4ccc(OC(F)(F)F)cc4)C[C@@]3(F)C2)cc1` (single isomer, unassigned) [Example 4.02, (−)-trans-5-(4-sulfamoyl-benzoyl)-3a-fluoro-hexahydro-pyrrolo[3,4-c]pyrrole-2-carboxylic acid 4-trifluoromethoxy-benzyl ester], for which the half-inhibitory concentration (IC50) on human ATX is 8 nM; in assay [1], 10 nM.

Consider `CO[C@@]12CN(C(=O)OCc3ncc(C(F)(F)F)cc3NC(=O)C(C)(C)C)C[C@H]1CN(C(=O)c1ccc(S(N)(=O)=O)cc1)C2` (single isomer, unassigned) [Example 4.03, (−) trans-5-(4-sulfamoyl-benzoyl)-3a-methoxy-hexahydro-pyrrolo[3,4-c]pyrrole-2-carboxylic acid 3-(2,2-dimethyl-propionylamino)-5-trifluoromethyl-pyridin-2-ylmethyl ester], for which the 50% inhibitory concentration (IC50) at human ATX was 11 nM; in assay [1] it was 13 nM.

Regarding `CO[C@]12CN(C(=O)OCc3ccc(OC(F)(F)F)cc3)C[C@@H]1CN(C(=O)c1ccc(S(N)(=O)=O)cc1)C2` (racemic) [Example 1.05, trans-5-(4-sulfamoyl-benzoyl)-3a-methoxy-hexahydro-pyrrolo[3,4-c]pyrrole-2-carboxylic acid 4-trifluoromethoxy-benzyl ester], the midpoint of inhibition at human ATX, the IC50, lay at 20 nM.

The values are drawn from patent US10738053B2, “Bicyclic compounds as dual ATX/CA inhibitors” (Hoffmann-La Roche Inc., priority 2015, dated 2020).
